# Source: ChEMBL document CHEMBL4422631, “Investigation of stereoisomeric bisarylethenesulfonic acid esters for discovering potent and selective PTP1B inhibitors” (Eur J Med Chem, 2019)
# Legend:
# [1] = molecular target: T1, Tyrosine-protein phosphatase non-receptor type 1 (Homo sapiens) (UniProt P18031); assay: Inhibition of PTP1B in human HepG2 cells assessed as increase in insulin stimulated glucose uptake at 5 uM preincubated for 24 hrs followed by insulin addition and measured after 10 mins by 2-NBDG dye-based FACS analysis relative to control; format: cell-based; parameters: scale not given: the % may be the effect or the level left
# T1 sequence (whole entry): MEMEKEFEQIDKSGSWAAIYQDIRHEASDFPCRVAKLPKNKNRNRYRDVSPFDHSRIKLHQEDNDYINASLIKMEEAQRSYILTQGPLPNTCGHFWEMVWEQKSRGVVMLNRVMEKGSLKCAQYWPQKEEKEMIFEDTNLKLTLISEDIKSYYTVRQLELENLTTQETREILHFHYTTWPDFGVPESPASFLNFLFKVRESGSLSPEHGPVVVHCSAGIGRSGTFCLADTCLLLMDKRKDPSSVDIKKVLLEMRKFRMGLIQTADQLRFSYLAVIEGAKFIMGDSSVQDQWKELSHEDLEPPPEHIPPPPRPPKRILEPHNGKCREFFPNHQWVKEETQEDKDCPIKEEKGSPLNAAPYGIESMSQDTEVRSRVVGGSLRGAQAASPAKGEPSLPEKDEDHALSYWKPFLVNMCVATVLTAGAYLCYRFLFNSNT
# [2] = molecular target: T1, Tyrosine-protein phosphatase non-receptor type 1 (Homo sapiens); assay: Inhibition of PTP1B in human HepG2 cells assessed as increase in insulin stimulated glucose uptake at 20 uM preincubated for 24 hrs followed by insulin addition and measured after 10 mins by 2-NBDG dye-based FACS analysis relative to control; format: cell-based; parameters: scale not given: the % may be the effect or the level left
# [3] = molecular target: T1, Tyrosine-protein phosphatase non-receptor type 1 (Homo sapiens); assay: Inhibition of PTP1B in human HepG2 cells assessed as increase in insulin stimulated glucose uptake at 10 uM preincubated for 24 hrs followed by insulin addition and measured after 10 mins by 2-NBDG dye-based FACS analysis relative to control; format: cell-based; parameters: scale not given: the % may be the effect or the level left
# [4] = molecular target: T2, Tyrosine-protein phosphatase non-receptor type 1 (Homo sapiens, UniProt P18031); assay: Inhibition of PTP1B (unknown origin) using pNPP as substrate after 30 mins
# T2 sequence (P18031 whole entry): T1 sequence (whole entry)
# [5] = Apparent permeability of compound at 10 uM at pH 7.4 after 12 hrs by PAMPA; format: ADME
# [6] = molecular target: T3, Tyrosine-protein phosphatase non-receptor type 2 (Homo sapiens, UniProt P17706); assay: Inhibition of TCPTP (unknown origin) using pNPP as substrate after 30 mins
# T3 sequence (P17706 whole entry): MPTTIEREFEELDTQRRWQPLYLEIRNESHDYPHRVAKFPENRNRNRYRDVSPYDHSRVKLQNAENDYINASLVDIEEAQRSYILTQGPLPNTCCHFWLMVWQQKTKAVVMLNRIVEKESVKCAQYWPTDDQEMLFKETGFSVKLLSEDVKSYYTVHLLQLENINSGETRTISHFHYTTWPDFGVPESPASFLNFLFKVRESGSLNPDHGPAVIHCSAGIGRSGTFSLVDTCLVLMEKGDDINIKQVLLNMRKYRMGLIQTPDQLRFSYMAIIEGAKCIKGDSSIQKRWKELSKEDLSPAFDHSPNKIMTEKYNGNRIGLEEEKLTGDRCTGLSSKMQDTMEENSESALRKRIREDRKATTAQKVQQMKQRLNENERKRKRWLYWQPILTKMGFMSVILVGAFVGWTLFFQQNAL
# [7] = molecular target: T4, Tyrosine-protein phosphatase non-receptor type 11 (Homo sapiens, UniProt Q06124); assay: Inhibition of SHP2 (unknown origin) using pNPP as substrate after 30 mins
# T4 sequence (Q06124 whole entry): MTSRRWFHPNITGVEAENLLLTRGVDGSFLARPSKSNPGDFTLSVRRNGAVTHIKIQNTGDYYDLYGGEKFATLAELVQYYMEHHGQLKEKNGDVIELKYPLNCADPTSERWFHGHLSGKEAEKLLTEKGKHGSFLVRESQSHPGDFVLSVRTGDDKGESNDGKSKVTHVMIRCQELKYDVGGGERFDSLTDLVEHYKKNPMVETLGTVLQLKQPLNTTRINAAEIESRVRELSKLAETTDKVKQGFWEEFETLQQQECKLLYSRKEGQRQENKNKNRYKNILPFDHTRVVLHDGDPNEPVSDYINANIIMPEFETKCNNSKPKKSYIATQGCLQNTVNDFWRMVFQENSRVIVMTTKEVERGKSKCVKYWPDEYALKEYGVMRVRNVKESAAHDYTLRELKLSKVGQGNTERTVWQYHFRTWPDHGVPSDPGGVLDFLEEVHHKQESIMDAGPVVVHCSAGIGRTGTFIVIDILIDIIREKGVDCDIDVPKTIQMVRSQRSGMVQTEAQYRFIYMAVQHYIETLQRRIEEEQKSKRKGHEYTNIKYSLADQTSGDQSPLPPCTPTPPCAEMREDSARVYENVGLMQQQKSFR
IC50 [4] [µM],Compound,other results
,CCc1ccc(CCOc2ccc(CC3SC(=O)NC3=O)cc2)nc1 (stereo unspecified),Activity [1]: 51.1%; Activity [2]: 78.9%; Activity [3]: 70.2%
0.38,CCOS(=O)(=O)/C=C/c1ccc(O[C@@H]2CN(C(=O)C(=O)Nc3ccc(Oc4ccc(Cl)cc4)cc3)C[C@H]2Oc2ccc(CCS(=O)(=O)OCC)cc2)cc1,
1.93,CCOS(=O)(=O)/C=C/c1ccc(O[C@@H]2CN(C(=O)Nc3ccc(Oc4ccccc4)cc3)C[C@H]2Oc2ccc(/C=C/S(=O)(=O)OCC)cc2)cc1,
,CC(C)NCC(O)COc1cccc2ccccc12 (stereo unspecified) [PROPRANOLOL],"Papp at 12 h, 10 µM [5]: 8.71 ×10⁻⁶ cm/s"
1.22,CCOS(=O)(=O)/C=C/c1ccc(O[C@@H]2CN(C(=O)C(=O)Nc3ccc(Oc4ccc(F)cc4)cc3)C[C@@H]2Oc2ccc(CCS(=O)(=O)OCC)cc2)cc1,
16.8,CCOS(=O)(=O)/C=C/c1ccc(O[C@@H]2CNC[C@H]2Oc2ccc(/C=C/S(=O)(=O)OCC)cc2)cc1,"IC50 [6]: 29.6 µM; Papp at 12 h, 10 µM [5]: 0.93 ×10⁻⁶ cm/s; IC50 [7]: 23.5 µM"
0.46,CCOS(=O)(=O)/C=C/c1ccc(O[C@@H]2CN(C(=O)C(=O)Nc3ccc(Oc4ccc(F)cc4)cc3)C[C@H]2Oc2ccc(CCS(=O)(=O)OCC)cc2)cc1,
2.95,CCOS(=O)(=O)/C=C/c1ccc(O[C@@H]2CN(C(=O)c3ccc(Oc4ccccc4)cc3)C[C@H]2Oc2ccc(/C=C/S(=O)(=O)OCC)cc2)cc1,
7.81,CCOS(=O)(=O)/C=C/c1ccc(O[C@@H]2CN(C(=O)c3ccccc3)C[C@H]2Oc2ccc(/C=C/S(=O)(=O)OCC)cc2)cc1,
0.36,CCOS(=O)(=O)/C=C/c1ccc(O[C@@H]2CN(C(=O)C(=O)Nc3ccc(Oc4ccc5ccccc5c4)cc3)C[C@H]2Oc2ccc(CCS(=O)(=O)OCC)cc2)cc1,
1.26,CCOS(=O)(=O)/C=C/c1ccc(O[C@@H]2CN(C(=O)C(=O)Nc3ccc(Oc4ccc5ccccc5c4)cc3)C[C@@H]2Oc2ccc(CCS(=O)(=O)OCC)cc2)cc1,
1.39,CCOS(=O)(=O)/C=C/c1ccc(O[C@@H]2CN(C(=O)C(=O)Nc3ccc(Oc4ccc(C(C)C)cc4)cc3)C[C@@H]2Oc2ccc(CCS(=O)(=O)OCC)cc2)cc1,
2.52,CCOS(=O)(=O)/C=C/c1ccc(O[C@@H]2CN(C(=O)C(=O)Nc3ccccc3)C[C@H]2Oc2ccc(/C=C/S(=O)(=O)OCC)cc2)cc1,"IC50 [6]: 7.84 µM; Papp at 12 h, 10 µM [5]: 1.27 ×10⁻⁶ cm/s; IC50 [7]: 5.65 µM"
0.43,CCOS(=O)(=O)/C=C/c1ccc(O[C@@H]2CN(C(=O)C(=O)Nc3ccc(Oc4ccc(C(C)(C)C)cc4)cc3)C[C@H]2Oc2ccc(CCS(=O)(=O)OCC)cc2)cc1,
3.36,CCOS(=O)(=O)/C=C/c1ccc(O[C@@H]2CN(C(=O)c3ccc(Oc4ccc(C(C)C)cc4)cc3)C[C@H]2Oc2ccc(/C=C/S(=O)(=O)OCC)cc2)cc1,
1.51,CCOS(=O)(=O)/C=C/c1ccc(O[C@@H]2CN(C(=O)C(=O)Nc3ccc(Oc4ccc(Br)cc4)cc3)C[C@@H]2Oc2ccc(CCS(=O)(=O)OCC)cc2)cc1,
1.17,CCOS(=O)(=O)/C=C/c1ccc(O[C@@H]2CN(C(=O)C(=O)Nc3ccc(Oc4ccc(C(C)(C)C)cc4)cc3)C[C@@H]2Oc2ccc(CCS(=O)(=O)OCC)cc2)cc1,
1.37,CCOS(=O)(=O)/C=C/c1ccc(O[C@@H]2CN(C(=O)Nc3ccc(Oc4ccc(C(C)C)cc4)cc3)C[C@H]2Oc2ccc(/C=C/S(=O)(=O)OCC)cc2)cc1,
1.54,CCCCCCc1ccc(NC(=O)C(=O)N2C[C@H](Oc3ccc(CCS(=O)(=O)OCC)cc3)[C@H](Oc3ccc(/C=C/S(=O)(=O)OCC)cc3)C2)cc1,
6.87,CCOS(=O)(=O)/C=C/c1ccc(O[C@@H]2CN(Cc3ccc(Oc4ccc(C(C)C)cc4)cc3)C[C@H]2Oc2ccc(/C=C/S(=O)(=O)OCC)cc2)cc1,
1.45,CCOS(=O)(=O)/C=C/c1ccc(O[C@@H]2CN(C(=O)C(=O)Nc3ccc(Oc4ccc(Cl)cc4)cc3)C[C@@H]2Oc2ccc(CCS(=O)(=O)OCC)cc2)cc1,
9.34,CCOS(=O)(=O)/C=C/c1ccc(O[C@@H]2CN(Cc3ccccc3)C[C@H]2Oc2ccc(/C=C/S(=O)(=O)OCC)cc2)cc1,
7.42,CCOS(=O)(=O)/C=C/c1ccc(O[C@@H]2CN(Cc3ccc(Oc4ccccc4)cc3)C[C@H]2Oc2ccc(/C=C/S(=O)(=O)OCC)cc2)cc1,
27.4,CCOS(=O)(=O)/C=C/c1ccc(O[C@H]2CNC[C@H]2Oc2ccc(/C=C/S(=O)(=O)OCC)cc2)cc1,"IC50 [6]: 47.8 µM; Papp at 12 h, 10 µM [5]: 0.87 ×10⁻⁶ cm/s; IC50 [7]: 55.2 µM"
0.61,CCCCCCc1ccc(NC(=O)C(=O)N2C[C@@H](Oc3ccc(/C=C/S(=O)(=O)OCC)cc3)[C@H](Oc3ccc(CCS(=O)(=O)OCC)cc3)C2)cc1,
3.51,CCOS(=O)(=O)/C=C/c1ccc(O[C@@H]2CN(C(=O)Nc3ccccc3)C[C@H]2Oc2ccc(/C=C/S(=O)(=O)OCC)cc2)cc1,
2.79,CCOS(=O)(=O)/C=C/c1ccc(O[C@@H]2CN(C(=O)C(=O)Nc3ccc(Oc4ccccc4)cc3)C[C@@H]2Oc2ccc(CCS(=O)(=O)OCC)cc2)cc1,
0.44,CCOS(=O)(=O)/C=C/c1ccc(O[C@@H]2CN(C(=O)C(=O)Nc3ccc(Oc4ccc(Br)cc4)cc3)C[C@H]2Oc2ccc(CCS(=O)(=O)OCC)cc2)cc1,
0.42,CCOS(=O)(=O)/C=C/c1ccc(O[C@@H]2CN(C(=O)C(=O)Nc3ccc(Oc4ccc(C(C)C)cc4)cc3)C[C@H]2Oc2ccc(/C=C/S(=O)(=O)OCC)cc2)cc1,
1.07,CCOS(=O)(=O)/C=C/c1ccc(O[C@@H]2CN(C(=O)C(=O)Nc3ccc(Oc4ccccc4)cc3)C[C@H]2Oc2ccc(/C=C/S(=O)(=O)OCC)cc2)cc1,
